Source: ChEMBL document CHEMBL1201862, “PubChem BioAssay data set” (2004)
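A five-concentration, 48-hour dose response in 96-well plates underlies each endpoint, interpolated linearly between surrounding concentrations. GI50: concentration for 50% inhibition of growth.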 The source made the active and inactive calls. Rule as the data show it: active = GI50 up to about 1.1 µM and inactive = higher.

Assays:
Assay in all cases: NCI-60 cell line screen, 48 h
[1] = system: RXF 393
[2] = system: ACHN
[3] = system: RPMI-8226
[4] = system: MCF7
[5] = system: IGROV-1
[6] = system: HCT-116
[7] = system: SK-OV-3
[8] = system: MOLT-4
[9] = system: SF-295
[10] = system: HOP-92
[11] = system: NCI-H23
[12] = system: NCI-H226
[13] = system: UO-31
[14] = system: OVCAR-8
[15] = system: COLO 205
[16] = system: HCT-15
[17] = system: NCI-H460
[18] = system: K562
[19] = system: MDA-N
[20] = system: HCC 2998

In the case of O=C(O)CN(CC(=O)O)c1ccccc1, the GI50 [1] is reported as > 100 µM (inactive), the GI50 [2] is reported as > 100 µM (inactive) and the GI50 [3] is reported as 35.6 µM (inactive). For the same compound, the GI50 [4] was > 100 µM (inactive), the GI50 [5] was > 100 µM (inactive) and the GI50 [6] was 56.5 µM (inactive). For the same compound, the GI50 [7] was > 100 µM (inactive), the GI50 [8] was > 100 µM (inactive) and the GI50 [9] was > 100 µM (inactive). For the same compound, the GI50 [10] was 48.9 µM (inactive), the GI50 [11] was 75.3 µM (inactive) and the GI50 [12] was > 100 µM (inactive). The GI50 [13] was > 100 µM (inactive), the GI50 [14] was > 100 µM (inactive) and the GI50 [15] was > 100 µM (inactive). For the same compound, the GI50 [16] was over 100 µM, the GI50 [17] was 71.1 µM (inactive) and the GI50 [18] was 35 µM (inactive). For the same compound, the GI50 [19] was 97.5 µM (inactive).
With N=C(N)NNC(=O)C(=O)O the GI50 [1] was > 100 µM (inactive), the GI50 [2] was > 100 µM (inactive) and the GI50 [3] was > 100 µM (inactive). For the same compound, the GI50 [4] was > 100 µM (inactive), the GI50 [5] was > 100 µM (inactive) and the GI50 [6] was > 100 µM (inactive). For the same compound, the GI50 [7] was 55.1 µM (inactive), the GI50 [8] was > 100 µM (inactive) and the GI50 [9] was > 100 µM (inactive). The GI50 [11] was > 100 µM (inactive), the GI50 [12] was > 100 µM (inactive) and the GI50 [13] was > 100 µM (inactive). The GI50 [14] was > 100 µM (inactive), the GI50 [15] was > 100 µM (inactive) and the GI50 [16] was over 100 µM. For the same compound, the GI50 [17] was > 100 µM (inactive), the GI50 [20] was > 100 µM (inactive) and the GI50 [18] was > 100 µM (inactive). The GI50 [19] was > 100 µM (inactive).
With O=C(O)c1ccn(-c2cccc(-n3ccc(C(=O)O)n3)n2)n1 the GI50 [1] was > 100 µM (inactive), the GI50 [2] was > 100 µM (inactive) and the GI50 [3] was > 100 µM (inactive). The GI50 [4] was > 100 µM (inactive), the GI50 [5] was > 100 µM (inactive) and the GI50 [6] was > 100 µM (inactive). The GI50 [7] was > 100 µM (inactive), the GI50 [8] was > 100 µM (inactive) and the GI50 [9] was > 100 µM (inactive). The GI50 [11] was > 100 µM (inactive), the GI50 [12] was > 100 µM (inactive) and the GI50 [13] was > 100 µM (inactive). For the same compound, the GI50 [14] was > 100 µM (inactive), the GI50 [15] was > 100 µM (inactive) and the GI50 [16] was over 100 µM. For the same compound, the GI50 [17] was > 100 µM (inactive), the GI50 [18] was > 100 µM (inactive) and the GI50 [19] was > 100 µM (inactive).
With Cc1ccc(C(=O)N2CCN(C(=O)c3ccc(C)cc3)c3ccccc32)cc1 the GI50 [1] was 2.24 µM (inactive), the GI50 [2] was 9.59 µM (inactive) and the GI50 [3] was 3.03 µM (inactive). For the same compound, the GI50 [4] was 2.48 µM (inactive), the GI50 [5] was 4.91 µM (inactive) and the GI50 [6] was 3.04 µM (inactive). For the same compound, the GI50 [7] was 2.89 µM (inactive), the GI50 [8] was 3.07 µM (inactive) and the GI50 [9] was 3.09 µM (inactive). For the same compound, the GI50 [10] was 16.4 µM (inactive), the GI50 [11] was 4.52 µM (inactive) and the GI50 [13] was 4.76 µM (inactive). The GI50 [14] was 6.25 µM (inactive), the GI50 [15] was 3.39 µM (inactive) and the GI50 [16] was 1.94 µM. The GI50 [17] was 4.14 µM (inactive), the GI50 [20] was 6.58 µM (inactive) and the GI50 [18] was 2.55 µM (inactive). For the same compound, the GI50 [19] was 0.274 µM (active).
With COc1cc2c(cc1OCCCC(=O)Nc1cc(C(=O)NCCCN(C)C)n(C)n1)N=CC1CCCN1C2=O (stereo unspecified) the GI50 [1] was 9.18 µM (inactive), the GI50 [2] was 6.44 µM (inactive) and the GI50 [3] was 5.66 µM (inactive). For the same compound, the GI50 [4] was 10.1 µM (inactive), the GI50 [5] was 6.7 µM (inactive) and the GI50 [6] was 12.9 µM (inactive). For the same compound, the GI50 [7] was > 42.2 µM (inactive), the GI50 [8] was 0.347 µM (active) and the GI50 [9] was > 100 µM (inactive). For the same compound, the GI50 [10] was 6.56 µM (inactive), the GI50 [11] was 11.5 µM (inactive) and the GI50 [13] was 8.65 µM (inactive). For the same compound, the GI50 [15] was 8.93 µM (inactive), the GI50 [16] was 8.55 µM and the GI50 [17] was 9.89 µM (inactive). The GI50 [20] was 11.1 µM (inactive), the GI50 [18] was 0.123 µM (active) and the GI50 [19] was 23.3 µM (inactive).
With COc1ccccc1NC(=S)N/N=C(/C)c1ccccn1 the GI50 [1] was 0.658 µM (active), the GI50 [2] was < 0.0106 µM (active) and the GI50 [3] was < 0.01 µM (active). For the same compound, the GI50 [4] was < 0.01 µM (active), the GI50 [5] was < 0.01 µM (active) and the GI50 [6] was < 0.01 µM (active). The GI50 [7] was < 0.0213 µM (active), the GI50 [8] was < 0.01 µM (active) and the GI50 [9] was 0.0771 µM (active). The GI50 [10] was 6.93 µM (inactive), the GI50 [11] was < 0.0185 µM (active) and the GI50 [13] was 1.37 µM (inactive). The GI50 [14] was 0.0112 µM (active), the GI50 [15] was < 0.0119 µM (active) and the GI50 [16] was under 0.0318 µM. The GI50 [17] was < 0.0132 µM (active), the GI50 [20] was 7 µM (inactive) and the GI50 [18] was < 0.01 µM (active). For the same compound, the GI50 [19] was 0.637 µM (active).
With CC(C(O)Cc1ccccc1)N(C)/N=N/c1ccc([N+](=O)[O-])cc1 (stereo unspecified) the GI50 [1] was 1.19 µM (inactive), the GI50 [2] was 25.6 µM (inactive) and the GI50 [3] was 16.9 µM (inactive). The GI50 [4] was 24 µM (inactive), the GI50 [5] was 19.4 µM (inactive) and the GI50 [6] was 16.4 µM (inactive). The GI50 [7] was 22.3 µM (inactive), the GI50 [8] was 18.2 µM (inactive) and the GI50 [9] was 19.8 µM (inactive). The GI50 [11] was 20.1 µM (inactive), the GI50 [12] was 19.5 µM (inactive) and the GI50 [13] was 15.2 µM (inactive). The GI50 [14] was 17.6 µM (inactive), the GI50 [15] was 21.2 µM (inactive) and the GI50 [16] was 22.8 µM. For the same compound, the GI50 [17] was 15.2 µM (inactive), the GI50 [20] was 16.7 µM (inactive) and the GI50 [18] was 27.2 µM (inactive). For the same compound, the GI50 [19] was 19.3 µM (inactive).
